Measurements as given in PubChem BioAssay (NCI).
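Assay format: 96-well plates, 48-hour exposure. GI50 = concentration required for 50% inhibition of growth. TGI marks complete inhibition of growth.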

Key:
Test in all cases: NCI anticancer screen, dose series, 48 h
T-47D breast = system: T-47D breast
K-562 leukemia = system: K-562 leukemia
TK-10 renal = system: TK-10 renal
HT29 colon = system: HT29 colon
NCI-H522 lung = system: NCI-H522 lung
HL-60(TB) leukemia = system: HL-60(TB) leukemia
CAKI-1 renal = system: CAKI-1 renal
MOLT-4 leukemia = system: MOLT-4 leukemia
SNB-19 CNS = system: SNB-19 CNS
LOX IMVI melanoma = system: LOX IMVI melanoma
SN12C renal = system: SN12C renal
HCC-2998 colon = system: HCC-2998 colon
MDA-MB-231 breast = system: MDA-MB-231 breast
SF-268 CNS = system: SF-268 CNS
UO-31 renal = system: UO-31 renal
HOP-92 NSCLC = system: HOP-92 NSCLC
M14 melanoma = system: M14 melanoma
SK-MEL-5 melanoma = system: SK-MEL-5 melanoma
OVCAR-5 ovarian = system: OVCAR-5 ovarian
MDA-MB-435 = system: MDA-MB-435
SK-MEL-2 melanoma = system: SK-MEL-2 melanoma
A498 renal = system: A498 renal
MCF7 breast = system: MCF7 breast
HCT-116 colon = system: HCT-116 colon
SW-620 colon = system: SW-620 colon
COLO 205 colon = system: COLO 205 colon
SF-539 CNS = system: SF-539 CNS
PC-3 prostate = system: PC-3 prostate
MALME-3M melanoma = system: MALME-3M melanoma

For `CCOc1ccc([C@H]2C(C(=O)c3ccc(Cl)cc3)C3(N[C@@H]2c2ccccc2)C(=O)Nc2ccc(Br)cc23)cc1` (some centres not stated), the TGI (T-47D breast) was 35.2 µM, the GI50 (K-562 leukemia) was 25.3 µM and the TGI (K-562 leukemia) was over 100 µM. It also gave a GI50 (TK-10 renal) of 13.7 µM, a TGI (TK-10 renal) of 28.8 µM and a GI50 (HT29 colon) of 14.9 µM. The TGI (HT29 colon) was 31 µM, the GI50 (NCI-H522 lung) was 14.2 µM and the TGI (NCI-H522 lung) was 28.2 µM. It also gave a GI50 (HL-60(TB) leukemia) of 23.1 µM, a TGI (HL-60(TB) leukemia) of 63.1 µM and a GI50 (CAKI-1 renal) of 13.1 µM. It also gave a TGI (CAKI-1 renal) of 26.2 µM, a GI50 (MOLT-4 leukemia) of 18.2 µM and a TGI (MOLT-4 leukemia) of 73.8 µM. It also gave a GI50 (SNB-19 CNS) of 15.2 µM, a TGI (SNB-19 CNS) of 29.7 µM and a GI50 (LOX IMVI melanoma) of 15.7 µM. It also gave a TGI (LOX IMVI melanoma) of 30.4 µM, a GI50 (SN12C renal) of 15.2 µM and a TGI (SN12C renal) of 31.2 µM. The GI50 (HCC-2998 colon) was 15.7 µM, the TGI (HCC-2998 colon) was 31 µM and the GI50 (MDA-MB-231 breast) was 15.8 µM. The TGI (MDA-MB-231 breast) was 31.8 µM, the GI50 (SF-268 CNS) was 17.3 µM and the TGI (SF-268 CNS) was 39.4 µM. For the same compound, the GI50 (UO-31 renal) was 12.9 µM, the TGI (UO-31 renal) was 25.6 µM and the GI50 (HOP-92 NSCLC) was 7.75 µM. The TGI (HOP-92 NSCLC) was 21.8 µM, the GI50 (M14 melanoma) was 15 µM and the TGI (M14 melanoma) was 30.1 µM. For the same compound, the GI50 (SK-MEL-5 melanoma) was 18 µM, the TGI (SK-MEL-5 melanoma) was 32.7 µM and the GI50 (OVCAR-5 ovarian) was 14.6 µM. The TGI (OVCAR-5 ovarian) was 29.4 µM, the GI50 (MDA-MB-435) was 15.9 µM and the TGI (MDA-MB-435) was 30.3 µM. For the same compound, the GI50 (SK-MEL-2 melanoma) was 14.1 µM, the TGI (SK-MEL-2 melanoma) was 27.9 µM and the GI50 (A498 renal) was 14.3 µM. For the same compound, the TGI (A498 renal) was 28.8 µM, the GI50 (MCF7 breast) was 14 µM and the TGI (MCF7 breast) was 36.7 µM. The GI50 (HCT-116 colon) was 14.6 µM, the TGI (HCT-116 colon) was 29.7 µM and the GI50 (SW-620 colon) was 18.5 µM. For the same compound, the TGI (SW-620 colon) was 40.9 µM, the GI50 (COLO 205 colon) was 15 µM and the TGI (COLO 205 colon) was 30.1 µM. It also gave a GI50 (SF-539 CNS) of 15.9 µM, a TGI (SF-539 CNS) of 30.5 µM and a GI50 (PC-3 prostate) of 13.8 µM. The TGI (PC-3 prostate) was 27.6 µM, the GI50 (MALME-3M melanoma) was 14.7 µM and the TGI (MALME-3M melanoma) was 28.5 µM.
